Our source for the GI50 and TGI values is PubChem BioAssay (NCI).

Test systems include NCI-H23 lung; HCC-2998 colon; M14 melanoma; MOLT-4 leukemia; COLO 205 colon; NCI/ADR-RES ovarian; IGROV1 ovarian; OVCAR-3 ovarian; SK-MEL-5 melanoma; U251 CNS.
What all share (assay): NCI anticancer screen, dose series, 48 h

Values joined by “and” are separate entries in the source; they are usually repeats but may differ in a detail not shown here. Equal entries are not always repeated.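 All cell lines were grown in 96-well plates and treated with compound for 48 hours. GI50 is the concentration that inhibits growth by half. TGI denotes the concentration required for complete inhibition of growth.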

On to `COc1ccc(/C(C)=C(\c2ccc(OCCN3CCCCCC3)cc2)c2ccc(OC(=O)C3CCCCC3)cc2)cc1`, for which the GI50 in the assay with NCI-H23 lung is 1.29 µM; in the assay with HCC-2998 colon, 1.24 µM; in the assay on M14 melanoma, 0.416 µM; in the assay on MOLT-4 leukemia, 0.497 µM; in the assay on COLO 205 colon, 0.626 µM; with NCI/ADR-RES ovarian, 1.61 µM. The GI50 is 1.21 µM in the assay with IGROV1 ovarian, 1.16 µM with OVCAR-3 ovarian, 1.08 µM with SK-MEL-5 melanoma and 1.01 µM in the assay with U251 CNS. Also, the TGI with NCI-H23 lung was 4.32 µM; with HCC-2998 colon, 3.36 µM; in the assay on M14 melanoma, 1.3 µM; in the assay on MOLT-4 leukemia it was 2.54 µM; with COLO 205 colon, 4.06 µM; in the assay with NCI/ADR-RES ovarian, 4.78 µM. Besides, the TGI in the assay with IGROV1 ovarian stood at 3.88 µM; in the assay on OVCAR-3 ovarian, 3.13 µM; with SK-MEL-5 melanoma, 3 µM; in the assay with U251 CNS, 3.62 µM.

As for `CCCCCCCCCCNC(=O)CI`, the GI50 with NCI-H23 lung is 0.929 µM; with HCC-2998 colon it was 3.53 µM; in the assay on M14 melanoma, 1.59 µM; with MOLT-4 leukemia, 0.298 µM; in the assay on COLO 205 colon it was 2.38 µM; in the assay with NCI/ADR-RES ovarian, 2.32 µM. For the same molecule, the GI50 with IGROV1 ovarian is 0.12 µM; in the assay on OVCAR-3 ovarian, 1.87 µM; with SK-MEL-5 melanoma, 1.96 µM; in the assay on U251 CNS it was 1.58 µM. The TGI with NCI-H23 lung was found to be 2.74 µM; in the assay on HCC-2998 colon, 11.5 µM; in the assay with M14 melanoma, 3.2 µM; in the assay with MOLT-4 leukemia, 1.07 µM; with COLO 205 colon it was 6.01 µM; in the assay with NCI/ADR-RES ovarian it was 5.56 µM. In addition, the TGI in the assay on IGROV1 ovarian was 0.288 µM; with OVCAR-3 ovarian, 3.44 µM; with SK-MEL-5 melanoma, 4.72 µM; in the assay with U251 CNS it was 3.14 µM.

As for `COc1ccc(-c2cnnn2-c2nonc2-n2cccc2)cc1`, the GI50 is 0.246 µM with NCI-H23 lung; 0.235 µM in the assay with HCC-2998 colon; 0.209 µM with M14 melanoma; 0.498 µM in the assay with MOLT-4 leukemia; 0.235 µM in the assay on COLO 205 colon; 0.102 µM in the assay on NCI/ADR-RES ovarian. Besides, the GI50 was 0.536 µM in the assay on IGROV1 ovarian, 0.179 µM in the assay on OVCAR-3 ovarian, 0.324 µM in the assay on SK-MEL-5 melanoma and 0.344 µM in the assay with U251 CNS. The TGI was found to be 5.82 µM in the assay on NCI-H23 lung; 2.89 µM in the assay on HCC-2998 colon; 6.62 µM with M14 melanoma; 12.6 µM with MOLT-4 leukemia; 0.787 µM with COLO 205 colon; 0.67 µM with NCI/ADR-RES ovarian. In addition, the TGI with IGROV1 ovarian was greater than 92.8 µM; in the assay with OVCAR-3 ovarian, 0.47 µM; in the assay on SK-MEL-5 melanoma, 13.2 µM; in the assay with U251 CNS it was 8.41 µM.

On to `Cc1cc(N/N=C/c2ccccn2)nc2ccccc12`, for which the GI50 was 0.831 µM in the assay on NCI-H23 lung; 0.462 µM in the assay with HCC-2998 colon; 0.413 µM in the assay on M14 melanoma; 0.352 µM in the assay with MOLT-4 leukemia; 0.367 µM in the assay on COLO 205 colon; 0.393 µM in the assay on NCI/ADR-RES ovarian. The GI50 with IGROV1 ovarian is 0.356 µM; in the assay with OVCAR-3 ovarian, 0.382 µM; in the assay with SK-MEL-5 melanoma, 0.302 µM; with U251 CNS it was 0.378 µM. Besides, the TGI with NCI-H23 lung worked out at 22.2 µM; in the assay with HCC-2998 colon, 16.1 µM; in the assay with M14 melanoma, 5.62 µM; in the assay on MOLT-4 leukemia, 4.98 µM; in the assay on COLO 205 colon, 12.4 µM; with NCI/ADR-RES ovarian, 21.7 µM. Besides, the TGI in the assay on IGROV1 ovarian amounted to 3.95 µM; with OVCAR-3 ovarian it was 11 µM; with SK-MEL-5 melanoma it was 6.24 µM; in the assay on U251 CNS, 10.5 µM.

For the molecule `OC(c1cc(-c2ccc(C(F)(F)F)cc2)nc(C(F)(F)F)c1)C1CCCCN1` (stereo not given), the GI50 was 1.68 µM and 2.39 µM in the assay on NCI-H23 lung; 0.53 µM with HCC-2998 colon; 1.32 µM in the assay with MOLT-4 leukemia; 1.65 µM in the assay with NCI/ADR-RES ovarian; 2.02 µM in the assay on IGROV1 ovarian; 1.85 µM and 2.69 µM in the assay with OVCAR-3 ovarian. Besides, the GI50 in the assay with SK-MEL-5 melanoma is 1.63 µM and 1.86 µM; with U251 CNS, 1.53 µM. The TGI in the assay with NCI-H23 lung is 3.15 µM and 6.12 µM; in the assay on HCC-2998 colon, 1.76 µM and 3.07 µM; with M14 melanoma it was 3.12 µM and 3.14 µM; in the assay with MOLT-4 leukemia, 3.16 µM and 4.34 µM; in the assay with COLO 205 colon it was 3.42 µM and 3.15 µM; with NCI/ADR-RES ovarian, 3.1 µM and 5.99 µM. Moreover, the TGI in the assay with IGROV1 ovarian was 3.1 µM and 4.89 µM; with OVCAR-3 ovarian, 3.28 µM and 6.76 µM; in the assay on SK-MEL-5 melanoma it was 2.99 µM and 3.27 µM; in the assay with U251 CNS it was 2.86 µM and 3.34 µM.

On to `CC(C)CC(C/C=C1/CC(CO)(COC(=O)C(C)(C)C)OC1=O)CC(C)C` (stereo not given), for which the TGI in the assay on NCI-H23 lung is 23.4 µM and 24.4 µM; with HCC-2998 colon it was 5.37 µM and 6.13 µM; in the assay on M14 melanoma, 28 µM and 26.2 µM; in the assay with MOLT-4 leukemia, 23.6 µM and > 41.6 µM; in the assay on COLO 205 colon, 0.958 µM; in the assay with NCI/ADR-RES ovarian, 35.3 µM and 29.7 µM. Also, the TGI in the assay on IGROV1 ovarian was 30.6 µM and 24.4 µM; in the assay on OVCAR-3 ovarian, 36.6 µM and 18.8 µM; in the assay with SK-MEL-5 melanoma, 18.8 µM and 4.95 µM; in the assay with U251 CNS, 21.7 µM. In addition, the GI50 is 14.9 µM and 5.32 µM in the assay on OVCAR-3 ovarian; 0.462 µM and 0.0794 µM in the assay on SK-MEL-5 melanoma.
